What was measured:
[1] = absolute recovery over vacuum-assisted evaporative concentration; higher = better recovery; settings: enrichment method: VEC
Procedure, shortened: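 After spiking with standards before concentration, after concentration or not at all, at 1000 ng/L for wastewater or 200 ng/L for nanopure and surface water with class- and compound-specific adjustments, samples of 6 mL influent, 15 mL effluent and 60 mL surface or nanopure water were evaporated at 55 °C and 20 mbar to about 0.3 mL. They were brought to 0.4 mL, centrifuged, given internal standards and analysed by LC-HRMS/MS. Absolute recovery, (response ratio pre − unspiked)/(post − unspiked) × 100, used averages of ≥ 2 replicates.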

[2] = absolute recovery over mixed-bed multilayer solid-phase extraction; higher = better recovery; settings: enrichment method: SPE
Procedure, shortened: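 Absolute recovery was calculated by comparing background-corrected response ratios of samples spiked before extraction with those spiked after it, averaged over at least two replicates. Wastewater (100–250 mL, adjusted to pH 6.5 and glass-fibre filtered) or 1000 mL of unfiltered nanopure water was passed through a three-layer mixed-bed cartridge and eluted with basic and then acidic ethyl acetate/methanol. Standards were added before extraction, after extraction, or not at all, at 200 ng/L in water or 1000 ng/L in wastewater, with exceptions for some classes. Internal standards were added afterwards, and samples were analysed by liquid chromatography with high-resolution tandem mass spectrometry in both ionisation modes.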

[3] = LC retention time (Atlantis T3, 5-95% MeOH gradient, 0.1% formic acid); higher = more retained / less polar
Procedure, shortened: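 Retention times were recorded for reference standards on a polar reversed-phase C18 column. The standards were of purity ≥ 95%, and the Atlantis T3 column (3 × 150 mm, 3 μm) was run at 0.3 mL/min with a gradient from 5 to 95% methanol over 17.5 min, both water and methanol containing 0.1% formic acid. Detection used high-resolution tandem mass spectrometry on a QExactive Plus, with positive and negative electrospray in separate runs, and peaks were integrated in TraceFinder (5 ppm tolerance, at least three points per peak) before being checked by hand.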

SMILES	absolute recovery ([1]; wastewater effluent)	absolute recovery ([1]; wastewater influent)	absolute recovery ([2]; nanopure water)	absolute recovery ([2]; surface water)	absolute recovery ([2]; wastewater effluent)	absolute recovery ([2]; wastewater influent)	LC retention time [3]
CON=C(C(=O)OC)c1ccccc1COc1ccccc1C [Kresoxim-methyl]	98.9%	89.9%	103%	110%	103%	93.5%	20.7 min
Nc1nnc(-c2cccc(Cl)c2Cl)c(N)n1 [Lamotrigin]	104%	97.7%	96.2%	96.6%	91.1%	96.7%	12.8 min
O=c1[nH]c2c(c(=O)n1C1CCCCC1)CCC2 [Lenacil]	102%	103%	93.2%	87.6%	92%	92.4%	18.6 min
c1ccc(C2CN3CCSC3=[NH+]2)cc1 (stereo not drawn) [Levamisol]	104%	98.7%	84.8%	81.9%	83.8%	82%	9.66 min
CCC(C(N)=O)N1CCCC1=O (stereo not drawn) [Levetiracetam]	105%	–	65.6%	60.2%	56.3%	–	10.9 min
CC1COc2c(N3CCN(C)CC3)c(F)cc3c(=O)c(C(=O)[O-])cn1c23 (stereo not drawn) [Levofloxacin]	103%	135%	88.7%	108%	93.3%	114%	11.2 min
CC[NH+](CC)CC(=O)Nc1c(C)cccc1C [Lidocain]	101%	99.4%	97.1%	96.5%	93.5%	95%	11.2 min
CC[N+]([O-])(CC)CC(=O)Nc1c(C)cccc1C [Lidocaine-N-Oxide]	102%	105%	90.4%	94.7%	90.6%	98.9%	12.2 min
CC(=O)NCC1CN(c2ccc(N3CCOCC3)c(F)c2)C(=O)O1 (stereo not drawn) [Linezolid]	103%	100%	92.3%	90.5%	92%	99.5%	14.9 min
CON(C)C(=O)Nc1ccc(Cl)c(Cl)c1 [Linuron]	101%	99.8%	96.5%	98.3%	92.4%	93.3%	19.5 min
O=C1Nc2ccc(Cl)cc2C(c2ccccc2Cl)=NC1O (stereo not drawn) [Lorazepam]	108%	104%	104%	94.3%	97.3%	87.4%	18.3 min
CCCCc1nc(Cl)c(CO)n1Cc1ccc(-c2ccccc2-c2nn[nH]n2)cc1 [Losartan]	99.1%	105%	85.5%	85.9%	80.1%	88%	18.3 min
CCC(C)C(=O)OC1CC(C)C=C2C=CC(C)C(CCC3CC(O)CC(=O)O3)C21 (stereo not drawn) [Lovastatin]	107%	106%	70.5%	70.9%	76.1%	59.5%	22.2 min
Cc1cc(Cl)ccc1OCC(=O)[O-] [MCPA]	102%	103%	96.1%	92.9%	92.7%	94.2%	19.3 min
Cc1cc(Cl)ccc1OCCCC(=O)[O-] [MCPB]	103%	–	100%	95.2%	97.5%	108%	20.3 min
C#CCOc1ccc(CCNC(=O)C(OCC#C)c2ccc(Cl)cc2)cc1OC (stereo not drawn) [Mandipropamid]	110%	112%	105%	117%	110%	93.5%	19.2 min
Cc1cc(Cl)ccc1OC(C)C(=O)[O-] (stereo not drawn) [Mecoprop]	101%	99%	100%	99.2%	94.9%	94.2%	20 min
CN1CC[NH+]=C(c2ccccc2)c2cc(Cl)ccc21 [Medazepam]	103%	109%	83.9%	95.2%	93.6%	68.8%	14.5 min
Cc1cccc(Nc2ccccc2C(=O)[O-])c1C [Mefenamic-acid]	102%	97.7%	101%	95.7%	93.3%	–	21.9 min
CCOC(=O)C1=NN(c2ccc(Cl)cc2Cl)C(C)(C(=O)OCC)C1 (stereo not drawn) [Mefenpyr-diethyl]	84.3%	87.1%	98%	107%	96.9%	95%	21.1 min
CC12CC3CC(C)(C1)CC([NH3+])(C3)C2 [Memantine]	100%	114%	83.4%	83.5%	89.2%	78%	14.9 min
CC#Cc1cc(C)nc(Nc2ccccc2)n1 [Mepanipyrim]	95.3%	62.1%	93.5%	107%	103%	94.9%	20.2 min

SMILES	absolute recovery ([1]; wastewater effluent)	absolute recovery ([1]; wastewater influent)	absolute recovery ([2]; nanopure water)	absolute recovery ([2]; surface water)	absolute recovery ([2]; wastewater effluent)	absolute recovery ([2]; wastewater influent)	LC retention time [3]
CCOC(=O)C1(c2ccccc2)CC[NH+](C)CC1 [Meperidine]	99.2%	103%	88.6%	87.8%	86.8%	96.6%	12.8 min
C[NH2+]C(C)C(=O)c1ccc(C)cc1 (stereo not drawn) [Mephedron (=4-Methylmethcathinon)]	76.7%	71.4%	62.3%	66.2%	62.8%	72.7%	11.4 min
Cc1cccc(C)c1NC(=O)C1CCCC[NH+]1C (stereo not drawn) [Mepivacaine]	106%	103%	78.4%	74.7%	80%	89.6%	11.6 min
CCC1(c2cccc(O)c2)CCCC[NH+](C)C1 (stereo not drawn) [Meptazinol]	110%	103%	90.6%	92.9%	86.5%	91.9%	12.1 min
COC(=O)c1ccc(CNS(C)(=O)=O)cc1S(=O)(=O)[N-]C(=O)Nc1nc(OC)cc(OC)n1 [Mesosulfuron-methyl]	111%	101%	101%	95%	96.2%	98.7%	18 min
CS(=O)(=O)c1ccc(C(=O)[O-])c([N+](=O)[O-])c1 [Mesotrion-MNBA]	98.9%	104%	98%	57.1%	89.3%	93.6%	9.31 min
CS(=O)(=O)c1ccc(C(=O)[C-]2C(=O)CCCC2=O)c([N+](=O)[O-])c1 [Mesotrion]	103%	103%	–	96.5%	94.6%	80.1%	16 min
COCC(=O)N(c1c(C)cccc1C)C(C)C(=O)OC (stereo not drawn) [Metalaxyl]	103%	97.8%	96.6%	95.8%	93.6%	94.7%	18.4 min
Cc1nnc(-c2ccccc2)c(=O)[n-]1 [Metamitron-Desamino]	112%	107%	97.9%	97.8%	89.8%	90.1%	14.5 min
Cc1nnc(-c2ccccc2)c(=O)n1N [Metamitron]	106%	98.5%	97.1%	–	95.8%	97.5%	14.3 min
Cc1cc(C)cc(OCC2CNC(=O)O2)c1 (stereo not drawn) [Metaxalone]	95.8%	99.2%	104%	85.9%	87.1%	87.9%	17.8 min
Cc1cccc(C)c1N(Cn1cccn1)C(=O)CS(=O)(=O)[O-] [Metazachlor-ESA]	102%	104%	98.7%	95.6%	96.8%	97.6%	17.5 min
Cc1cccc(C)c1N(Cn1cccn1)C(=O)C(=O)[O-] [Metazachlor-OXA]	108%	103%	95.6%	97.5%	92.4%	87.4%	17.1 min
Cc1cccc(C)c1N(Cn1cccn1)C(=O)CCl [Metazachlor]	104%	96%	96.5%	97%	93.4%	94.5%	18.3 min
CC1(C)CCC(Cc2ccc(Cl)cc2)C1(O)Cn1cncn1 (stereo not drawn) [Metconazole]	100%	105%	95.9%	108%	94.9%	80.9%	21.3 min
CN(C)C(=[NH2+])NC(N)=[NH2+] [Metformin]	118%	–	88.2%	–	–	–	3.25 min
C[NH2+]C(C)Cc1ccccc1 (stereo not drawn) [Methamphetamin]	100%	91.3%	92.5%	86.6%	89.3%	92.5%	10.6 min
COc1nn(CSP(=S)(OC)OC)c(=O)s1 [Methidathion]	108%	106%	102%	97.9%	96.5%	88.2%	18.8 min
CNC(=O)Oc1cc(C)c(SC)c(C)c1 [Methiocarb]	67.9%	64%	96.3%	95.4%	92.7%	88.7%	19.4 min
CNC(=O)ON=C(C)SC [Methomyl]	98.3%	110%	82.7%	77.3%	79%	79.3%	11.9 min
COc1cccc(C(=O)NN(C(=O)c2cc(C)cc(C)c2)C(C)(C)C)c1C [Methoxyfenozid]	104%	98.9%	104%	103%	98.1%	94.8%	19.7 min
CN1C(=O)CC(C)(c2ccccc2)C1=O (stereo not drawn) [Methsuximide]	99%	85.5%	99.2%	84.5%	89.9%	89.6%	16.6 min
